Experimental data from patent US11414387B2, “Oxoacridinyl acetic acid derivatives and methods of use” (Stingthera, Inc., priority 2017, dated 2022).

Key:
mSTING-CTD = mSTING-CTD (Mus musculus (Mouse), UniProt Q3TBT3); experiment: Mouse STING protein FP competition concentration response assay; assay type: binding
Protocol: A validated STING ligand, such as c-di-GMP, which is labeled with a read-out signal (e.g., a fluorescence signal such as fluorescein), is mixed with STING-CTD (e.g., mouse STING-CTD or human STING-CTD) with or without the presence of a compound of the present application. Changes in the read-out signal are measured (e.g., by fluorescence anisotropy) to determine the binding of the compound to STING-CTD.
Fluorescein labeled c-di-GMP was mixed with mSTING-CTD with or without the presence of a compound of the present application in PBS in black 384-well plates (10 μL per well). The fluorescence anisotropy was determined on a PerkinElmer EnVisions multi-mode plate reader. The plate can be read immediately after mixing the reagents or after a few hours without change of signals.
• 1) 6×his-sumo-mSTING (Supplier: HDB) • 2) 2′-Fluo-AHC-c-di GMP (BIOLOG #F009) • 3) 23-cGAMP (BIOLOG #C161) • 4) DMXAA (InvivoGen #tlrl-dmx) • 5) DMSO (Sigma. #D5879-100 mL) • 6) 10×PBS(HDB #MCP-020) • 7) Assay plate, 384-well black plate, solid black bottom (Greiner #784076) • 8) Compound dilution intermediate plate, 384 LDV plate (Labcyte #LP-0200) • 9) Liquid handler, ECHO550 (Labcyte) • 10) Liquid handler, Bravo (Aglient) • 11) Reader, Envision (PerkinElmer) • 12) Centrifuge (Eppendorf) • 13) Multichannel Pipette (Raining) • 14) 10 ml Reservoir (Corning) • 15) 15 ml centrifuge tube (Corning) • 16) Adhesive Plate seals (BioRad) Compound Preparation • a) Containers of each compound were centrifuged at 1000 rpm for 5 min. • b) Compounds were dissolved in DMSO at 30 mM. • c) Compounds were sufficiently vortexed, and centrifuged at 1000 rpm for 1 min. • d) 16 uL of the compound solution was transferred into a LDV Compound Plate. • e) 2-fold serial dilutions of the compound solution were made with DMSO, and 14 concentrations were made in the 384-well LDV Compound Plate. • f) The LDV plate was spun at 1000 rpm for 60 sec and sealed with foil (stored at −20° C. if not used immediately). • g) 335 nL of each compound from the LDV Compound Plate was transferred to Assay Plate (ECHO550). Probe Preparation • a) 200 uM probe stock (2′-Fluo-AHC-c-diGMP) was diluted by dd2O to 6 uM working concentration. • b) 10-12 uL 6 uM working solution of probe was transferred into the LDV plate. • c) 50 nL per well 6 uM working solution of probe was transferred from the LDV plate to each well of the empty Assay Plate (Greiner 784076) by ECHO550 Buffer mode. • d) Probe final concentration was 30 nM when assay system was 10 uL. • e) The Assay Plate was spun at 1000 rpm for 1 min. Compound Addition • a) After the LDV Compound Plate was prepared, 100 nL compound (ECHO550 DMSO mode) was transferred from the LDV Compound Plate into the Assay Plate (Greiner 784076) containing 50 nL probe in each well according to the Assay Plate layout. • b) DMSO final concentration was 1% when assay system was 10 uL. • c) The Assay Plate was spun at 1000 rpm for 1 min. Protein Addition • a) Aliquot of 6×his-sumo-mSTING protein was thawed on ice, briefly to generate uniform solution. • b) 66 uM stock protein was diluted in 1×PBS assay buffer to generate 8 uM final solutions. • c) For test compound and ZPE wells, 10 μL per well of 8 uM protein solutions was added into the Assay Plate containing both the probe and test compounds or DMSO using multichannel pipette. • d) For HPE wells, 10 µL/well of 1×PBS assay buffer instead of protein was added into the Assay Plate containing both the probe and DMSO using multichannel pipette. • e) The Assay Plate was spun at 1000 rpm for 1 min. • f) The Assay Plate was incubated at r.t. for 10-20 min.
The EnVision plate reader was used to record the FA value of each well immediately after mixing the reagents or after a few hours without change of signals.
The raw data and calculated data (Fluorescence anisotropy (FA)) was exported from the EnVision reader. […]

hSTING-WT = hSTING-WT (Homo sapiens (Human), UniProt Q86WV6, H232R); experiment: Radiometric filtration binding competition assay, hSTING-WT
Protocol: (§1) A radiometric filtration binding competition assay was performed to quantify the binding affinity of compounds of the present application for the human or mouse STING protein, or associated HAQ human isoform. […] The resulting dose response was fit by non-linear regression to determine an IC50 value, from which a Ki value for each compound was extrapolated.
(§2) The resulting complexes were then filtered, dried, and scintillation fluid was added and the remaining radio signal was measured to determine the degree of compound ligand inhibition. This assay format was optimized for both the WT and HAQ isoforms of the human protein and the mouse orthologue protein.
(§3) Probe Concentration: Minimum concentration that achieved max assay window • g. Assay Format: Scintillation Proximity Bead or Filtration Binding Plate • h. […] Assay incubation times for successive incubation steps
(§4) WT-hSWAT: WT_FBA_HIS-SUMO-hSWAT IC50 (μM) (“WT”=Wild-type); HAQ-hSWAT: HAQ_FBA_HIS-SUMO-hSWAT IC50 (μM) (“HAQ”=human HAQ allele of STING protein); and WT-mSWAT: MOUSE_FBA_HIS-SUMO-mnSWAT IC50 (μM) which is the mouse isoform of STING protein.

mSTING = mSTING (Mus musculus, UniProt Q3TBT3); experiment: Radiometric filtration binding competition assay, mSTING
Protocol: as §1, §2, §3, §4

mSTING-R232 = mSTING-R232 (Mus musculus, UniProt Q3TBT3); experiment: STING differential scanning fluorimetry (DSF) assay, mouse STING; conditions: net shift in melting temperature
Protocol: (§5) A STING DSF assay was performed to determine protein thermostability shift in response to small molecule ligand binding. A STING thermostability shift assay based on differential scanning fluorimetry was used to measure (1) the net shift in melting temperature (ΔTm)between the apo and ligand-bound states of the STING protein and (2) the concentration of the thermal denaturation transition (EC50) as a surrogate measure of binding affinity (K). […] Protein in assay buffer was transferred to a 384 well plate and incubated with the hydrophobic fluorescent dye SYBR Orange. A temperature ramp was applied to the plate and the resulting dye fluorescence was plotted as a function of temperature. The first derivative of this function (dF/dT) was then used to extrapolate the melting temperature of the protein at various concentrations of compound and determine the thermal denaturation profile of a protein/compound complex.
(§6) • 1. Protein construct (affinity tag removal vs SUMO-fusion construct) • 2. Protein concentration • 3. Dye concentration • 4. Buffer • 5. Thermal ramp velocity • 6. DMSO tolerance • 7. Compound titration parameters • 8. […] 5 μM purified Target STING Protein • 3. 8 μM Sypro Orange Dye • 4. Buffer: 100 mM NaCl, 30 mM HEPES, pH 7.5 • 5. Thermal Ramp: 0.5° C./min • 6. <1% DMSO • 7. 11 point, 2 fold dilution, duplicate, 300 μM high concentrations • 8.

hSTING-R232 = hSTING-R232 (Homo sapiens (Human), UniProt Q86WV6, H232R); experiment: STING differential scanning fluorimetry (DSF) assay, WT human STING; conditions: WT (R232) human STING aa140-379, net shift in melting temperature
Protocol: as §5, §6

hSTING-CTD = hSTING-CTD (Homo sapiens (Human), UniProt Q86WV6); experiment: Human STING protein FP competition concentration response assay; assay type: binding
Summary of the method: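 Compound, serially diluted 2-fold over 14 concentrations, competes with 2′-Fluo-AHC-c-di-GMP (30 nM) for binding to hSTING-CTD (10 uM) in PBS with 3.35% DMSO at room temperature for 10-20 min. Anisotropy change gives IC50 by sigmoidal four-parameter regression.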

STING protein = STING protein (Homo sapiens (Human), UniProt Q86WV6, H232R); experiment: Cell based reporter assay of IRF activation (IRF-luciferase), THP1-dual-KI R232; conditions: read-out: THP1-dual-KI R232_IRF(Luciferase)_Activity Maximum measured (%)
From the text: Briefly, THP-1 monocytes were transfected and selected for stable integration of 2 reporter constructs. Clones incorporating stably integrated vectors were further selected by antibiotic resistance to blastocidin and zeocin. The reporter constructs included: (1) firefly luciferase reporter gene under the control of an ISG54 promoter fused to five interferon (IFN)-stimulated response elements to measure IRF transcription factor binding activity and (2) secreted embryonic alkaline phosphatase reporter gene under transcription control of an IFN-beta minimal promoter fused to 5 copies of the NFkB consensus transcriptional response element and 3 copies of the c-Rel binding site.
The resulting THP-1 cell line was further modified to incorporate 3 amino acid point mutations (H71R A230G Q293R). This modification of the native TMEM173 gene in THP-1 cells (HAQ) was designed to produce a cell reporter that expressed the most common allelic variant in the human population (THP-1 R232, available from InvivoGen). Alternatively, the TMEM173 gene was knocked out to provide a congenic control to counter-screen for compound activation that was independent of the STING protein (THP-1 STING KO).
Once cell lines were established, reporter assay protocols were developed and optimized to screen small molecule compounds for agonist activity. Assay optimization for efficacy and Z′ value included titration of the following parameters:
• 1. Cell pre-activation with PMA • 2. Cell seeding density • 3. DMSO tolerance • 4. Media selection • 5. FBS concentration • 6. Incubation time • 7. Co-Assessment of cell viability by CTG assay • 8. Appropriate HPE and ZPE controls • 9. Dose Response Titration Final Assay SOP Conditions • 1. No pre-activation with PMA • 2. 5×10^4 cells/well in 96 well plate format • 3. <0.5% DMSO • 4. […] 10% FBS • 6. 14-18 hr incubation • 7. Cell Titer Glo reagent (Promega) following supernatant removal • 8.

hSTING-HAQ [1] = target: T1, hSTING-HAQ (Homo sapiens (Human), UniProt Q86WV6, G230A/H232R/R293Q); experiment: STING differential scanning fluorimetry (DSF) assay, HAQ human STING; conditions: HAQ human STING aa140-379, net shift in melting temperature
Protocol: as §5, §6

hSTING-HAQ [2] = target: T1, hSTING-HAQ; experiment: Radiometric filtration binding competition assay, hSTING-HAQ
Protocol: as §1, §2, §3, §4

Sequence of STING protein (Q86WV6 whole entry H232R, the tested form may be a part): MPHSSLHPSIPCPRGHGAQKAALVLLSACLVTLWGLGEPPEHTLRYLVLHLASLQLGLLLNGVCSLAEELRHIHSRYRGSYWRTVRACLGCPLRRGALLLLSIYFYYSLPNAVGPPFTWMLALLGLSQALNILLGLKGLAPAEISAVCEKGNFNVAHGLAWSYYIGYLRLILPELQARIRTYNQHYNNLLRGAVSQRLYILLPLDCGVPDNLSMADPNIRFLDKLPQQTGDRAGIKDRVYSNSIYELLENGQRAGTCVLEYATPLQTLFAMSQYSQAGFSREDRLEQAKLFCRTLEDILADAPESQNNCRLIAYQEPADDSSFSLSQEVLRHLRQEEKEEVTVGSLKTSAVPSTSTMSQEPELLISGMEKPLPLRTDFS
Sequence of mSTING-CTD (Q3TBT3 134-378): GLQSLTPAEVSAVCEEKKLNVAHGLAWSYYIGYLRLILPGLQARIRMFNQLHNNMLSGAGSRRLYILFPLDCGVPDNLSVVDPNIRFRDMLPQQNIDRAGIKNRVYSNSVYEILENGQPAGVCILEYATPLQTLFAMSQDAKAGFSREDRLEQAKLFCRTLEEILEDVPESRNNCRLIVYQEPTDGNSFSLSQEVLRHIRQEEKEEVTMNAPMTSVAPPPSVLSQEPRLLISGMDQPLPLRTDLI
Sequence of hSTING-R232 (Q86WV6 140-379 H232R): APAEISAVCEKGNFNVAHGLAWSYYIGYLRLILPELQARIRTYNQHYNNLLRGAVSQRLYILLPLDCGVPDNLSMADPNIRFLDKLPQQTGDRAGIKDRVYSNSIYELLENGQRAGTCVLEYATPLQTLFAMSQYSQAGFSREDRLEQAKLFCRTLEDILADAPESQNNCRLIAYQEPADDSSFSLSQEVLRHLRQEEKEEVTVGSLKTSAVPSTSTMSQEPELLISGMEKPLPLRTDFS
Sequence of hSTING-WT (Q86WV6 140-379 H232R): as above
Sequence of hSTING-CTD (Q86WV6 135-379): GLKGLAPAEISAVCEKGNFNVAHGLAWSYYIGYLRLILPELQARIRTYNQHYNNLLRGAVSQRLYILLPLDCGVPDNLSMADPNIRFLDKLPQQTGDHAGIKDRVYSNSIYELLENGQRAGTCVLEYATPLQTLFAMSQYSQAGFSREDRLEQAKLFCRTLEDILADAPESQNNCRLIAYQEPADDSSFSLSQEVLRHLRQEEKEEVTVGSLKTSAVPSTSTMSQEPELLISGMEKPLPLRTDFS
T1 sequence (Q86WV6 140-379 G230A/H232R/R293Q): as the sequence (Q86WV6 140-379 H232R) above, with G91A, R154Q counted along it

Row | Structure (SMILES) | IC50 (mSTING-CTD) [µM] | IC50 (hSTING-WT) [µM] | IC50 (mSTING) [µM] | MOUSE DSF_6xHIS-SUMO Tm Shift (° C.) (mSTING-R232) | WT_DSF_hSWAT Tm Shift (° C.) (hSTING-R232) | IC50 (hSTING-CTD) [µM] | Emax (STING protein) [%] | HAQ_DSF_hSWAT Tm Shift (° C.) (hSTING-HAQ [1]) | IC50 (hSTING-HAQ [2]) [µM]
1 | O=C(O)Cn1c2ccccc2c(=O)c2ccc(Cl)c(Cl)c21 [Compound 13] | 10 to 50 | > 300 | > 300 | C (“C” = 5-15° C.) | B (“B” = 0-2° C.) | 100 to 500 |  |  | 
2 | CN(C)c1ccc2c(=O)c3ccc(Cl)c(Cl)c3n(CC(=O)O)c2c1 [Compound 71] | 10 to 50 |  |  |  |  | 100 to 500 |  |  | 
3 | Cc1ccc2c(=O)c3cc(CCc4ccccc4C)ccc3n(CC(=O)O)c2c1 [Compound 75] | > 100 |  |  |  |  | 100 to 500 |  |  | 
4 | CC(C)c1ccc2c(=O)c3ccc(Cl)c(Cl)c3n(CC(=O)O)c2c1 [Compound 81] | 10 to 50 |  |  |  |  | < 100 |  |  | 
5 | CCc1ccc2c(=O)c3ccc(Cl)c(Cl)c3n(CC(=O)O)c2c1 [Compound 82] | 50 to 100 |  |  |  |  | 100 to 500 |  |  | 
6 | Cc1cc2c(=O)c3ccc(Cl)c(Cl)c3n(CC(=O)O)c2cc1C [Compound 94] | 50 to 100 |  |  |  |  | 100 to 500 |  |  | 
7 | Cc1c(Cl)ccc2c(=O)c3ccccc3n(CC(=O)O)c12 [Compound 98] | 10 to 50 |  |  |  |  | 500 to 1000 |  |  | 
8 | Cc1ccc2c(=O)c3ccccc3n(CC(=O)O)c2c1C [Compound 99] | 50 to 100 |  |  |  |  | 500 to 1000 |  |  | 
9 | O=C(O)Cn1c2cc(C3CCCC3)ccc2c(=O)c2ccc(Cl)c(Cl)c21 [Compound 113] |  | 20 to 100 | < 20 | D (“D” > 15° C.) | C (“C” = 2-7° C,) |  | 5 to 25 | C (“C” = 2-7° C,) | 
10 | CC1(C)CCC(c2ccc3c(=O)c4ccc(Cl)c(Cl)c4n(CC(=O)O)c3c2)CC1 [Compound 160] |  | 20 to 100 |  | D (“D” > 15° C.) | B (“B” = 0-2° C.) |  | 5 to 25 | B (“B” = 0-2° C.) | 
11 | O=C(O)Cn1c2cc(-c3cccc(C(F)(F)F)c3)ccc2c(=O)c2ccc(Cl)c(Cl)c21 [Compound 161] |  | 20 to 100 |  | D (“D” > 15° C.) | B (“B” = 0-2° C.) |  | < 5 | B (“B” = 0-2° C.) | 
12 | Cc1ccc(-c2ccc3c(=O)c4ccc(Cl)c(Cl)c4n(CC(=O)O)c3c2)cc1Cl [Compound 164] |  | 20 to 100 |  | D (“D” > 15° C.) | B (“B” = 0-2° C.) |  |  | B (“B” = 0-2° C.) | 
13 | O=C(O)Cn1c2cc(-c3ccccc3)ccc2c(=O)c2ccc(Cl)c(Br)c21 [Compound 177] |  | 20 to 100 | 20 to 100 |  | C (“C” = 2-7° C,) |  | < 5 |  | 100 to 300
14 | O=C(O)Cn1c2cc(Nc3ccccc3)ccc2c(=O)c2ccc(Cl)c(Cl)c21 [Compound 181] |  | < 20 | < 20 | D (“D” > 15° C.) | D (“D” > 7° C.) |  | > 50 |  | 20 to 100
15 | CC(C)c1ccc2c(=O)c3ccc(Cl)c(C(F)(F)F)c3n(CC(=O)O)c2c1 [Compound 192] |  | 20 to 100 | 100 to 300 | B (“B” = 0-5° C.) | A (“A” < 0° C.) |  | < 5 |  | 20 to 100
16 | C#Cc1c(Cl)ccc2c(=O)c3ccccc3n(CC(=O)O)c12 [Compound 197] |  | > 300 |  |  | C (“C” = 2-7° C,) |  | < 5 |  | > 300
17 | CSc1c(Cl)ccc2c(=O)c3ccccc3n(CC(=O)O)c12 [Compound 212] |  | 100 to 300 | 100 to 300 |  | C (“C” = 2-7° C,) |  |  |  | > 300
18 | O=C(O)Cn1c2cc(Nc3ncccn3)ccc2c(=O)c2ccc(Cl)c(Cl)c21 [Compound 216] |  | 20 to 100 | < 20 | D (“D” > 15° C.) | C (“C” = 2-7° C,) |  | > 50 |  | 20 to 100
19 | COc1c(Cl)ccc2c(=O)c3ccc(C4=CCCCC4)cc3n(CC(=O)O)c12 [Compound 219] |  | < 20 | < 20 |  | D (“D” > 7° C.) |  |  |  | 20 to 100
20 | CC(C)c1ccc2c(=O)c3ccc(Cl)c(Br)c3n(CC(=O)NS(C)(=O)=O)c2c1 [Compound 350] |  | 100 to 300 |  |  | C (“C” = 2-7° C,) |  | < 5 | C (“C” = 2-7° C,) | 
21 | Cc1ccc(S(=O)(=O)NC(=O)Cn2c3cc(C(C)C)ccc3c(=O)c3ccc(Cl)c(Cl)c32)cc1 [Compound 351] |  | 20 to 100 |  |  | A (“A” < 0° C.) |  | < 5 | A (“A” < 0° C.) | 
